Common to all, as to format: cell-based
The subject of assay [1] is HCC827-YVMA cells (human ERBB2 exon20 insertion mutant A775_G776ins YVMA). Nature of the assay: Cell growth inhibition (CellTiter-Glo, 3 days) in HCC827-YVMA. Conditions: 72 h, 3 days after administration. In short, it runs like this: (§1)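 Growth inhibition used a CellTiter-Glo luminescence read-out after 3 days of compound exposure at various concentrations. Cells were plated the day before at 5000/well in RPMI plus 10% FBS. The lines are HCC827 transduced by lentivirus with codon-optimized EGFR ASV or ERBB2 YVMA exon 20 insertions.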

The next assay has as its system HCC827 cells. Nature of the assay: Cell growth inhibition (CellTiter-Glo, 3 days) in HCC827. Particulars: Homo sapiens, 72 h, 3 days after administration. Put shortly: (§2)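 HCC827 cells were plated at 5000 cells/well in RPMI with 10% FBS, and A431 cells at the same density in DMEM with 10% FBS. After overnight attachment, compounds were added at various concentrations. Luminescence was recorded after plates were equilibrated to room temperature and incubated 10 min with reagent.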
In general terms: Cellular ATP, detected with luciferase, serves as a proxy for viable cell number.

In assay [2] the test system is HCC827-SVD cells (human EGFR exon 20 insertion mutant D770_N771 insSVD). The experiment in a line: Cell growth inhibition (CellTiter-Glo, 3 days) in HCC827-SVD. Particulars: 72 h, 3 days after administration. Put shortly:
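HCC827 cells carrying lentiviral codon-optimized EGFR D770_N771 insSVD, with endogenous EGFR knocked out by CRISPR (single clone), seeded at 5000 cells/well in RPMI with 10% FBS. Viability read by CellTiter-Glo luminescence.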

The subject of another assay is A431 cells. The experiment in a line: Cell growth inhibition (CellTiter-Glo, 3 days) in A431. Particulars: Homo sapiens, A-431, 72 h, 3 days after administration. In short, it runs like this:
as §2

Assay [3] deals with HCC827-ASV cells (human EGFR exon 20 insertion mutant A769_D770insASV). The experiment in a line: Cell growth inhibition (CellTiter-Glo, 3 days) in HCC827-ASV. Conditions: 72 h, 3 days after administration. Put shortly:
as §1

Take `C=CC(=O)N1CCC(Nc2cc3c(Nc4ccc(Oc5ccnc(N6CC[C@@H](C#N)C6)c5)cc4F)ncnc3cc2OC)CC1` [Example 258, (R)-1-(4-(4-((6-((1-acryloylpiperidin-4-yl)amino)-7-methoxyquinazolin-4-yl)amino)-3-fluorophenoxy)pyridin-2-yl)pyrrolidine-3-carbonitrile]: the GI50 in assay [1] was less than 30 nM; with HCC827 cells, 60 to 100 nM; in assay [2] it was less than 30 nM; in the assay on A431 cells, 600 to 1000 nM; in assay [3], less than 30 nM.

For the molecule `C=CC(=O)N1CCC(Nc2cc3c(Nc4ccc(Oc5ccnc(N6CC[C@H](C#N)C6)c5)cc4F)ncnc3cc2OC)CC1` [Example 259, (S)-1-(4-(4-((6-((1-acryloylpiperidin-4-yl)amino)-7-methoxyquinazolin-4-yl)amino)-3-fluorophenoxy)pyridin-2-yl)pyrrolidine-3-carbonitrile], the GI50 in assay [1] was less than 30 nM; in the assay on HCC827 cells, 60 to 100 nM; in assay [2] it was less than 30 nM; in the assay with A431 cells, no less than 1000 nM; in assay [3], less than 30 nM.

Regarding `C=CC(=O)N1CCC(Nc2cc3c(Nc4ccc(Oc5ccnc(N6CC(F)(F)C(F)(F)C6)c5)cc4F)ncnc3cc2OC)CC1` [Example 261, 1-(4-((4-((2-fluoro-4-((2-(3,3,4,4-tetrafluoropyrrolidin-1-yl)pyridin-4-yl)oxy)phenyl)amino)-7-methoxyquinazolin-6-yl)amino)piperidin-1-yl)prop-2-en-1-one], the GI50 fell in the range of 30 to 60 nM in assay [1]; 100 to 300 nM with HCC827 cells; 30 to 60 nM in assay [2]; 600 to 1000 nM in the assay on A431 cells; 30 to 60 nM in assay [3].

`C=CC(=O)N1CCC(Nc2cc3c(Nc4ccc(Oc5ccnc(N6CCC(C)(C#N)C6)c5)cc4F)ncnc3cc2OC)CC1` (centres unmarked) [Example 262, 1-(4-(4-((6-((1-acryloylpiperidin-4-yl)amino)-7-methoxyquinazolin-4-yl)amino)-3-fluorophenoxy)pyridin-2-yl)-3-methylpyrrolidine-3-carbonitrile]: the GI50 in assay [1] is 30 to 60 nM; in the assay on HCC827 cells, 30 to 60 nM; in assay [2], less than 30 nM; with A431 cells it was 600 to 1000 nM; in assay [3] it was 30 to 60 nM.

Consider `C=CC(=O)N1CCC(Nc2cc3c(Nc4ccc(Oc5ccnc(N6C[C@@H](F)[C@@H](OC)C6)c5)cc4F)ncnc3cc2OC)CC1` [Example 263, 1-(4-((4-((2-fluoro-4-((2-((3R,4S)-3-fluoro-4-methoxypyrrolidin-1-yl)pyridin-4-yl)oxy)phenyl)amino)-7-methoxyquinazolin-6-yl)amino)piperidin-1-yl)prop-2-en-1-one], for which the 50% growth inhibitory concentration (GI50) in assay [1] is less than 30 nM; in the assay with HCC827 cells, 100 to 300 nM; in assay [2] it was less than 30 nM; with A431 cells, 600 to 1000 nM; in assay [3] it was less than 30 nM.

As to `C=CC(=O)N1CCC(Nc2cc3c(Nc4ccc(Oc5ccnc(N6C[C@H](F)[C@@H](F)C6)c5)cc4F)ncnc3cc2OC)CC1` [Example 264, 1-(4-((4-((4-((2-((3S,4S)-3,4-difluoropyrrolidin-1-yl)pyridin-4-yl)oxy)-2-fluorophenyl)amino)-7-methoxyquinazolin-6-yl)amino)piperidin-1-yl)prop-2-en-1-one], the GI50 in assay [1] is less than 30 nM; in the assay with HCC827 cells it was 60 to 100 nM; in assay [2], less than 30 nM; in the assay with A431 cells it was 600 to 1000 nM; in assay [3], less than 30 nM.

Take `C=CC(=O)N1CCC(Nc2cc3c(Nc4ccc(Oc5ccnc(N6CCC(C)(F)C6)c5)cc4F)ncnc3cc2OC)CC1` (centres unmarked) [Example 265, 1-(4-((4-((2-fluoro-4-((2-(3-fluoro-3-methylpyrrolidin-1-yl)pyridin-4-yl)oxy)phenyl)amino)-7-methoxyquinazolin-6-yl)amino)piperidin-1-yl)prop-2-en-1-one]: the concentration for 50% growth inhibition (GI50) in assay [1] is less than 30 nM; in the assay with HCC827 cells, 30 to 60 nM; in assay [2] it was less than 30 nM; in the assay with A431 cells, 100 to 300 nM; in assay [3], less than 30 nM.

By GI50 is commonly meant the concentration giving 50% growth inhibition.

(Values after US20240398805A1, “QUINAZOLINE DERIVED COMPOUNDS AS EGFR INHIBITORS AND THEIR USES THEREOF” (ACCUTAR BIOTECHNOLOGY INC., priority 2021, published 2024).)
